One data set has as its system Ca Ski cell line. To be noted: 72 h. In outline: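 Compound dilution series (10 points, 3-fold, 10 mM top stock in DMSO) tested on overnight-plated Ca Ski cells in RPMI1640/10% FBS and on blasticidin-selected p53RE-bla HCT-116 cells in McCoy's 5A; read-out was CellTiter-Glo 2.0 luminescence after room-temperature equilibration.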
Data set [1] can be described thus: Solubility assay (kinetic solubility, PBS pH 7). It counts as physicochemical. To be noted: pH 7, aqueous buffer, kinetic from dmso stock, pH 7, PBS; read-out: Solubility. In short, it runs like this:
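Reference standards were made by diluting the 10 mM stock to 100 µM in acetonitrile:methanol:DMSO 10:80:10. Solubility in µM was calculated as the sample peak area divided by the standard peak area, multiplied by the standard concentration.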

A short description of data set [2]: Lactate dehydrogenase (LDH) release assay. The format is cell-based. In outline:
(§1)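 Read-out was lactate dehydrogenase release, reflecting loss of membrane integrity, in reporter-engineered HCT116 cells (p53-responsive β-lactamase) seeded at 8000 cells per well. Final DMSO was 0.5%, and reported values are geometric means from three or more biological repeats.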

A short description of a further data set: EPSA. It counts as physicochemical.
Data set [3] can be described thus: Experimental LogD (partition coefficient). To be noted: not stated, Partition Coeff LogD.
The nature of the next data set: in vitro. In short, it runs like this:
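Azido-peptide permeability was read as loss of NanoBRET signal (donor 450 nm, acceptor 610 nm) after adding NanoBret618-azide at 10 μM final.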

In data set [4] the test system is Jump-In T-REx CHO-K1 BLA cells. As to the kind of experiment: cells. It counts as cell-based. To be noted: Supplementary Table 1; 0% serum, 4 hours.
For the next data set, the system named is HCT116 cells. As to the kind of experiment: Lactate dehydrogenase (LDH) release assay. It counts as cell-based. In outline:
as §1

Setting [5] is: Nanoclick permeability assay EC50.

This note sets out measurements from paper PMC10786919, “Design-rules for stapled peptides with in vivo activity and their application to Mdm2/X antagonists” (Nature Communications, 2024).

The structures appear in SMILES notation. pEC50: −log10 of the molar value. In brackets after ≈: the same amount, converted by molar mass. Where two headings read alike, the source gives them in different places. Positions of bridges follow the written chain, without caps; N, C: chain ends. Non-standard residues stand in square brackets, D forms with d. Residues, ends and D or L forms follow the SMILES beside them. Lys(N3) = [N-]=[N+]=NCCCC[C@H](N)C(=O)O; R8 = C=CCCCCCC[C@@](C)(N)C(=O)O; Cba = N[C@@H](CC1CCC1)C(=O)O; S5 = C=CCCC[C@](C)(N)C(=O)O; βAla = NCCC(=O)O

`CC(=O)N[C@@H](CCCCN=[N+]=[N-])C(=O)NCCC(=O)N[C@@H](CC(C)C)C(=O)N[C@H](C(=O)N[C@@H](Cc1ccccc1)C(=O)N[C@]1(C)CCCCCCC=CCCC[C@@](C)(C(=O)N[C@@H](CO)C(=O)N[C@@H](C)C(=O)N[C@@H](C)C(N)=O)NC(=O)[C@H](CCC(=O)O)NC(=O)[C@H](CCC(N)=O)NC(=O)[C@H](C)NC(=O)[C@H](Cc2c[nH]c3ccccc23)NC(=O)[C@H](Cc2ccc(O)cc2)NC(=O)[C@H](CCC(=O)O)NC1=O)[C@@H](C)O` [MP-841]: the results for the pEC50 (in the data set with Ca Ski cell line; in data set [2] (LDH: Cytotoxicity assay: EC50)) were under 4.30 and under 4.29, respectively. Further, the solubility kinetic in data set [1] amounted to 162 µM (≈ 320 µg/mL). Moreover, in “EPSA” (EPSA), the EPSA worked out at 255 A^2. In addition, the logD (commonly lipophilicity at a set pH, counting ionised and neutral species) in data set [3] was 2.06. Further, in the data set “in vitro” (setting [5]), the cell entry EC50 was 0.878 µM.
For the compound `CC(=O)N[C@@H](CCCCN=[N+]=[N-])C(=O)NCCC(=O)N[C@@H](CC(C)C)C(=O)N[C@H](C(=O)N[C@@H](Cc1ccccc1)C(=O)N[C@]1(C)CCCCCCC=CCCC[C@@](C)(C(=O)N[C@@H](CCC(=O)O)C(=O)N[C@@H](CCC(=O)O)C(=O)N[C@@H](C)C(N)=O)NC(=O)[C@H](CC2CCC2)NC(=O)[C@H](CCC(N)=O)NC(=O)[C@H](CCC(=O)O)NC(=O)[C@H](Cc2c[nH]c3ccccc23)NC(=O)[C@H](Cc2ccc(O)cc2)NC(=O)[C@H](CCC(=O)O)NC1=O)[C@@H](C)O` [MP-3684] (Ac-[Lys(N3)][βAla]LTF[R8]EYWEQ[Cba][S5]EEA-NH2; staple 6-13), the “off-target effects (LDH release and/or counterscreen activity)” value in data set [4] is on record as “none”. Moreover, the “LDH: Cytotoxicity assay: % Effect” value came out at 7.239% with HCT116 cells (0% FBS 4Hr) and 0.1213% in the data set on HCT116 cells (10% FBS 16Hr). In addition, the pEC50 (as a rule, the EC50 on a negative log10 scale, so that one unit is a factor of ten) in data set [2] (0% FBS 4Hr, read-out: LDH: Cytotoxicity assay: EC50) is under 4.29; in data set [2] (10% FBS 16Hr, read-out: LDH: Cytotoxicity assay: EC50), under 4.29. Besides, in the data set “EPSA”, the EPSA entry is “Poorly Behaved”. In data set [3], this compound registered a logD of 1.89. Further, in “in vitro”, the cell entry EC50 amounted to 3.88 µM.
Turning to `CC(=O)N[C@@H](CCCCN=[N+]=[N-])C(=O)NCCC(=O)N[C@@H](CC(C)C)C(=O)N[C@H](C(=O)N[C@@H](Cc1ccccc1)C(=O)N[C@]1(C)CCCCCCC=CCCC[C@@](C)(C(=O)N[C@@H](C)C(=O)N[C@@H](C)C(=O)N[C@@H](Cc2ccccc2)C(=O)N[C@@H](C)C(=O)N[C@@H](C)C(=O)N[C@H](C)C(N)=O)NC(=O)[C@H](CC2CCC2)NC(=O)[C@H](CCC(N)=O)NC(=O)[C@H](C)NC(=O)[C@H](Cc2c[nH]c3ccccc23)NC(=O)[C@H](Cc2ccc(O)cc2)NC(=O)[C@H](CCC(=O)O)NC1=O)[C@@H](C)O` [MP-228] (Ac-[Lys(N3)][βAla]LTF[R8]EYWAQ[Cba][S5]AAFAA[dA]-NH2; staple 6-13), the pEC50 in the data set on Ca Ski cell line was 4.51; in data set [2] (LDH: Cytotoxicity assay: EC50) it was under 4.29. Also, the solubility kinetic in data set [1] was 2 µM (≈ 4.49 µg/mL). The EPSA in “EPSA” (EPSA) was 199 A^2. For the same compound, the cell entry EC50 in “in vitro” (setting [5]) was 2.51 µM.
As to `CC(=O)N[C@@H](CCCCN=[N+]=[N-])C(=O)NCCC(=O)N[C@@H](CC(C)C)C(=O)N[C@H](C(=O)N[C@@H](Cc1ccccc1)C(=O)N[C@]1(C)CCCCCCC=CCCC[C@@](C)(C(=O)N[C@@H](CO)C(=O)N[C@@H](C)C(=O)N[C@@H](C)C(N)=O)NC(=O)[C@H](CC2CCC2)NC(=O)[C@H](C)NC(=O)[C@H](CCC(N)=O)NC(=O)[C@H](Cc2c[nH]c3ccccc23)NC(=O)[C@H](Cc2ccc(O)cc2)NC(=O)[C@H](CCC(=O)O)NC1=O)[C@@H](C)O` [MP-4203] (Ac-[Lys(N3)][βAla]LTF[R8]EYWQA[Cba][S5]SAA-NH2; staple 6-13), in data set [1], the solubility kinetic was 179 µM (≈ 353 µg/mL). Also, the “LDH: Cytotoxicity assay: % Effect” value in the data set with HCT116 cells was 15.26%. Further, in data set [2] (LDH: Cytotoxicity assay: EC50), the pEC50 is under 4.29. In “EPSA” (EPSA), this compound showed an EPSA of 190 A^2. For the same compound, the pH-dependent lipophilicity (logD) in data set [3] turned out to be 2.71. Moreover, the cell entry EC50 in the data set “in vitro” (setting [5]) was 1.2 µM.
